From patent publication US9969697B2, “3,4-dihydroquinazoline derivative and combination comprising the same” (UNIVERSITY-INDUSTRY COOPERATION GROUP OF KYUNG HEE …, priority 2014, dated 2018) come the findings set out here.

The subject of test [1] is lung cancer cells (A549). The experiment in a line: Cell cycle analysis by PI staining / flow cytometry, with combination index. Type of test: cell-based, human. Set-up: SubG1: unit not given here. The conditions noted are these: A549, 48 hours. The protocol: To measure the inviability of cancer cells quantitatively, the cell cycle thereof was analyzed through flow cytometry as follows, in accordance with the method given in the document [See Kim, Y. H. et al., Expression of the murine homologue of the cell cycle control protein […] in T lymphocytes.
After adding ribonuclease (2.5 μg/ml) and propidium iodide (50 μg/ml) together with 500 μl of PBS, the cells were left for 30 minutes in the dark at room temperature, followed by analyzing cell cycle within 1 hour using FACScan flow cytometer (Becton Dickinson Co, Heidelberg, Germany).
(§1) Combination index (CI) mathematically expresses the cytotoxicity on cancer cells or growth inhibition of cancer cells through relative comparison after treating drugs alone or in a combination. The CI is the quantitative concept introduced by Paul Talalay and Ting-Chao Chou and was calculated using CalcuSyn software. The effect of combination treatment according to the values of CI was defined as follows.

Test [2] relates to lung cancer cells (A549). The experiment in a line: Annexin V-FITC/PI double staining assay (apoptosis), with combination index. The test is classed as cell-based, human. Also noted: unit not given here. The protocol:
Cell death include the event that phosphatidylserine translocated to the surface of cell membrane is bound to Annexin V-FITC to express fluorochromes. Cells were treated with drugs, harvested, washed with ice-cold PBS twice, and supplied with 100 μl of Annexin V binding buffer ([…] 4-(2-hydroxyethyl)piperazine-1-ethanesulfonic acid (HEPES)/NaOH, 140 mM NaCl, 2.5 mM CaCl2, pH 7.4). Thereto, 5 μl of FITC-conjugated Annexin V and PI (50 μg/ml) were added. The mixture was left for 30 minutes in the dark at room temperature, followed by analysis within 1 hour using FACScan flow cytometer (Becton Dickinson Co, Heidelberg, Germany).
as §1

In test [3] the test system is pancreatic cancer cells (PANC-1). The experiment in a line: Cell cycle analysis by PI staining / flow cytometry, with combination index. Type of test: cell-based, human. The conditions noted are these: PANC-1, 48 hours, Table 3.
In test [4] the test system is A549 cell line (human lung cancer). Description: MTT cytotoxicity assay on cancer cells. Type of test: cell-based. The following applies: 48 hours after treatment. The protocol: A549 cell line (human lung cancer) and PANC-1 cell line (human pancreatic cancer) were obtained from Korean Cell Line Bank (KCLB). The cells were cultured in RPMI 1640 medium supplemented with 10% fetal bovine serum (FBS) being heated and inactivated, penicillin (100 units/ml) and streptomycin sulfate (100 units/ml) under the condition of 37° C. and 5% CO2.
In order to confirm the cytotoxicity of drugs, an MTT (3-(4,5-dimethylthiazol-2-yl)-2,5-diphenyltetrazolium bromide) assay was conducted as follows [See Armichael et al., Evaluation of a tetrazolium-based semiautomated colorimetric assay: assessment of chemisensitivity testing. Cancer Research, 47, pp. 944-946, 1987]. The MTT assay is based on the reduction of water-soluble MTT (tetrazolium salt, yellow) which can be absorbed in living cells to its water-insoluble formazan crystals (purple) by activity of oxidoreductase enzymes of mitochondria. That is, when the number of viable cells is more, the formation of formazan crystals increases and the value of absorbance becomes higher.
Each of the cultured cancer cells was inoculated in a 96-well plate (5×10^4 cells/well) and cultured in RPMI medium (100 μl) containing 5% FBS. In 48 hours after the treatment of drugs (200, 100, 50, 25, 12.5, 6.25, 3.125 μM), 20 μl of an MTT solution (5.0 mg/ml) was added to each well, followed by further incubation for 4 hours. The supernatant of the plate was collected, and formazan crystals formed by MTT in the cells were added in 200 μl of DMSO to dissolve the precipitate. The OD value was measured at 540 nm using microplate reader (Molecular Devices).

For test [5], the target named is T1, α1G T-type calcium channel (Homo sapiens, UniProt O43497).
T1 construct: expressed in transfected cells
T1 sequence (O43497 whole entry): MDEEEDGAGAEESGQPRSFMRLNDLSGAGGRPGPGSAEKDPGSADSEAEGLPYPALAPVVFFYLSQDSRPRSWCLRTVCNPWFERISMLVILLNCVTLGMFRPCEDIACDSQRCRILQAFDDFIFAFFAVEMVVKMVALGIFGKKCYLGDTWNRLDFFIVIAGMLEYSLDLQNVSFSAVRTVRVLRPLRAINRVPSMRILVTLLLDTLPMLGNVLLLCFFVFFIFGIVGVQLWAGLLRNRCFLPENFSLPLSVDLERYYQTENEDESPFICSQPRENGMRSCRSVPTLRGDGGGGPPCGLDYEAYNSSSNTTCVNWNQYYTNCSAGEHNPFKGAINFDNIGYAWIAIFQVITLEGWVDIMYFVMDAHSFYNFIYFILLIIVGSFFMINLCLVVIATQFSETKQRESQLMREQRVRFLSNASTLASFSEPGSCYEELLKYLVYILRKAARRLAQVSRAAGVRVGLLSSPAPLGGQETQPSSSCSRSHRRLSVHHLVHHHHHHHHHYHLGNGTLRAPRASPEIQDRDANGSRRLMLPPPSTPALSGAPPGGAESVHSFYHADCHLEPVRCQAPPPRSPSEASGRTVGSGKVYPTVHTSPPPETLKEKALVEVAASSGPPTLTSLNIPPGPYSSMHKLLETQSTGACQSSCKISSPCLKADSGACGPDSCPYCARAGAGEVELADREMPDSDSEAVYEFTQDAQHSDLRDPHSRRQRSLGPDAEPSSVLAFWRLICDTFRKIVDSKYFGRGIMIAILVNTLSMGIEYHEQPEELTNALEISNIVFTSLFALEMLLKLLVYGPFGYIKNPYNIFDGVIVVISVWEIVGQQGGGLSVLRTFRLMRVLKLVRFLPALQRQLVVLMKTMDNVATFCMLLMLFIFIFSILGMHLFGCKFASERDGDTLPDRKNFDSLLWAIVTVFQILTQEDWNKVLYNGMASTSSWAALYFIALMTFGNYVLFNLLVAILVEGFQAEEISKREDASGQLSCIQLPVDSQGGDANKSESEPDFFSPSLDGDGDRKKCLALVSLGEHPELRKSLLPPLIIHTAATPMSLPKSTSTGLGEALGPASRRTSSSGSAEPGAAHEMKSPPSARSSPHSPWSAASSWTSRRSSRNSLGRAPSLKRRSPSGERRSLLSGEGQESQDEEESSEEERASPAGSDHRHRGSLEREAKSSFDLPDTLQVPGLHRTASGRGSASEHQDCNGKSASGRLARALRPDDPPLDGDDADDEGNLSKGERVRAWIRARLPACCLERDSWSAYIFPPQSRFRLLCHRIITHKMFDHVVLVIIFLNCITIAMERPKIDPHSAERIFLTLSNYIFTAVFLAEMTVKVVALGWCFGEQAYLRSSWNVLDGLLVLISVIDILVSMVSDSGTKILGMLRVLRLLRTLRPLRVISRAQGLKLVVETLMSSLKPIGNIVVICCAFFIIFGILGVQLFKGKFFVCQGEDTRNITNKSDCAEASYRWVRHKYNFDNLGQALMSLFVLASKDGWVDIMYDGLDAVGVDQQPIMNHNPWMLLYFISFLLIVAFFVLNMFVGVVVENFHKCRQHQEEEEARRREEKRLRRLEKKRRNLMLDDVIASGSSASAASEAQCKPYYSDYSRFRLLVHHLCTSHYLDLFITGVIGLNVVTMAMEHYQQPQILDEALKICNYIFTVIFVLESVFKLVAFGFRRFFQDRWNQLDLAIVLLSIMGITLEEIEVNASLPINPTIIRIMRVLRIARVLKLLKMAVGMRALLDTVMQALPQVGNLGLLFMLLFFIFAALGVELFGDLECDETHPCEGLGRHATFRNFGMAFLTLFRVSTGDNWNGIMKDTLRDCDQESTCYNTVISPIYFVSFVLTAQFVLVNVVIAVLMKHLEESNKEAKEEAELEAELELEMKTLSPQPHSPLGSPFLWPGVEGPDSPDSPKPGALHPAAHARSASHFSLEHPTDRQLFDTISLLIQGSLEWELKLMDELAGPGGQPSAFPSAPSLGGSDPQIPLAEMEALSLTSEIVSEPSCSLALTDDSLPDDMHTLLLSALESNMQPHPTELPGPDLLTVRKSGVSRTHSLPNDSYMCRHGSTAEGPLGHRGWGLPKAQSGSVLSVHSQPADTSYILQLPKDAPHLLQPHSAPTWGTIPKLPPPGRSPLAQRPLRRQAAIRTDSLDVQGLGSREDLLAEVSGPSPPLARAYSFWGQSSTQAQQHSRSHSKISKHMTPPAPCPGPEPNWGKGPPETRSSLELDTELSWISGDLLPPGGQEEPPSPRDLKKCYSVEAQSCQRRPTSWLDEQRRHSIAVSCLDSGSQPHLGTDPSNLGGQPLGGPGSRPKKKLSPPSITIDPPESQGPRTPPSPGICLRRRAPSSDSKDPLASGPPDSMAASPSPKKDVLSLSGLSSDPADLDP
Description: T-type calcium channel activity, whole-cell patch-clamp in HEK293 cells. The following applies: HEK293 cells expressing α1G T-type calcium channel; read-out: T-type calcium channel blocking effect (IC50: μM). The test is classed as cell-based. The protocol: The culture medium was replaced with a fresh medium every 3 to 4 days, and the cultured cells were subjected to sub-culture every week. […] The cells used for T-type calcium channel activity assay were cultured on a cover slip coated with poly-L-lysine (0.5 mg/mL) whenever sub-cultured, and their calcium channel activity was recorded 2 to 7 days after the cultivation. Current of the T-type calcium channel at a single cell level was measured according to an electrophysiological whole-cell patch-clamp method using EPC-9 amplifier (HEKA, Germany). At this time, a cell exterior solution [NaCl 140 mM, CaCl2 2 mM, and HEPES 10 mM (pH 7.4)] and a cell interior solution [KCl 130 mM, HEPES 10 mM, EGTA 11 mM, and MgATP 5 mM (pH 7.4)] were employed. Inward current caused by the T-type calcium channel activation which occurred when the cells were converted into a whole-cell recording mode by stabbing a microglass electrode having 3-4 MΩ resistance which was filled with the cell interior solution into a single cell and depolarized at −30 mV (50 ms duration period) every 10 s with fixing membrane potential to −100 mV was measured according to a T-type calcium Channel activity protocol activated at low voltage.

Consider `COc1cc2ncnc(Nc3ccc(F)c(Cl)c3)c2cc1OCCCN1CCOCC1` [Gefitinib], for which, in the test with lung cancer cells (A549) [1] (40 μM, Table 5), the G0/G1 amounted to 72.7, the G2/M is on record as 11.8, the S was found to be 4 and the SubG1 worked out at 11.6. In the test with lung cancer cells (A549) [1] (40 μM, Table 6), the G0/G1 came to 72.7, the G2/M is on record as 11.8, the S was 4 and the SubG1 amounted to 11.6.
On to `COc1cc([C@@H]2c3cc4c(cc3[C@@H](O[C@@H]3O[C@@H]5CO[C@@H](C)O[C@H]5[C@H](O)[C@H]3O)[C@H]3COC(=O)[C@H]23)OCO4)cc(OC)c1O` [Etoposide], for which, in the test with lung cancer cells (A549) [1] (50 μM, Table 4), the G0/G1 was found to be 36.0, the G2/M is on record as 18.9, the S was found to be 12.3 and the SubG1 is on record as 33.0. In the test on lung cancer cells (A549) [2] (A549, 50 μM), the “AV+/PI− (early apoptosis)” value turned out to be 19.1; the “Total AV+ (sum of early and late apoptosis)” value was found to be 31.68.
For `C#Cc1cccc(Nc2ncnc3cc(OCCOC)c(OCCOC)cc23)c1` [erlotinib, Erlotinib], in the test with lung cancer cells (A549) [1] (150 μM, Table 5), the G0/G1 is on record as 70.6, the G2/M came to 12.9, the S stood at 7.2 and the SubG1 stood at 9.6. Further, in the test with lung cancer cells (A549) [1] (300 μM, Table 6), the G0/G1 was determined as 27.7, the G2/M is 1.2, the S was 1 and the SubG1 came to 70.3.
Regarding `Cc1ccc(NC(=O)c2ccc(CN3CCN(C)CC3)cc2)cc1Nc1nccc(-c2cccnc2)n1` [Imatinib], in the test on lung cancer cells (A549) [1] (100 μM, Table 5), the G0/G1 was determined as 72.4, the G2/M was 14.4 and the SubG1 is 2.9. In addition, in the test with lung cancer cells (A549) [1] (100 μM, Table 6), the G0/G1 came out at 72.4, the G2/M is 14.4 and the SubG1 was found to be 2.9.
Consider `N.N.[Cl][Pt][Cl]` [Cisplatin], for which, in test [3] (30 μM), the G0/G1 amounted to 42, the G2/M turned out to be 29.4, the S turned out to be 9.4 and the SubG1 was found to be 9.3. Also, in the test with lung cancer cells (A549) [1] (20 μM, Table 2), the G0/G1 was determined as 9.0, the G2/M is 67.5, the S is on record as 13.1 and the SubG1 is 10.5. In the test with lung cancer cells (A549) [1] (30 μM, Table 2), the G0/G1 was 14.0, the G2/M came out at 52.9, the S was 15.8 and the SubG1 was found to be 17.0.
As to `COc1cccc2c1C(=O)c1c(O)c3c(c(O)c1C2=O)C[C@@](O)(C(=O)CO)C[C@@H]3O[C@H]1C[C@H](N)[C@H](O)[C@H](C)O1` [Doxorubicin], in the test on lung cancer cells (A549) [1] (10 μM, Table 5), the G0/G1 was 36.7, the G2/M is 18.3, the S is recorded as 11.9 and the SubG1 came out at 33.5. In the test on lung cancer cells (A549) [1] (10 μM, Table 6), the G0/G1 was found to be 36.7, the G2/M amounted to 18.3, the S was 11.9 and the SubG1 came out at 33.5.
Consider `CN(C)C(=O)NCCCN(C)C1=Nc2ccccc2C(CC(=O)NCc2ccc(F)cc2)N1c1ccc(C2CCCCC2)cc1` (stereo not shown) [Compound I-2, 4-[N-(4-fluorobenzyl)acetamido]-3-(4-cyclohexylphenyl)-2-[N—(N′,N′-dimethylureidopropyl)-N-methyl]amino-3,4-dihydroquinazoline], for which the values for the 50% inhibitory concentration (IC50) in test [4] and in test [5] were 7.3 µM and 0.89 ± 0.06 µM, respectively. Further, the G0/G1 in test [3] (2.5 μM) stood at 44.7; with lung cancer cells (A549) [1] (10 μM, Table 2), 79.1; with lung cancer cells (A549) [1] (10 μM, Table 4) it was 77.4; with lung cancer cells (A549) [1] (10 μM, Table 5), 76.8. Besides, the G2/M in test [3] (2.5 μM) is reported as 35; with lung cancer cells (A549) [1] (10 μM, Table 2) it was 10.9; in the test with lung cancer cells (A549) [1] (10 μM, Table 4), 13.3; with lung cancer cells (A549) [1] (10 μM, Table 5), 12.1. The S in test [3] (2.5 μM) is 7.2; in the test on lung cancer cells (A549) [1] (10 μM, Table 2) it was 2.4; in the test with lung cancer cells (A549) [1] (10 μM, Table 4), 5.4; in the test with lung cancer cells (A549) [1] (10 μM, Table 5), 7.6. Moreover, the SubG1 in test [3] (2.5 μM) was 2.5; in the test with lung cancer cells (A549) [1] (10 μM, Table 2) it was 7.6; in the test with lung cancer cells (A549) [1] (10 μM, Table 4) it was 4.0; with lung cancer cells (A549) [1] (10 μM, Table 5), 3.7. The “AV+/PI− (early apoptosis)” value was 2.4 in the test with lung cancer cells (A549) [2] (A549, 2.5 μM); 1.88 with lung cancer cells (A549) [2] (A549, 5 μM); 8.8 in the test on lung cancer cells (A549) [2] (A549, 10 μM). Besides, the “Total AV+ (sum of early and late apoptosis)” value with lung cancer cells (A549) [2] (A549, 2.5 μM) is on record as 6.08; in the test with lung cancer cells (A549) [2] (A549, 5 μM), 4.78; with lung cancer cells (A549) [2] (A549, 10 μM) it was 13.14.
Consider `COc1ccc(CN(C(C)=O)C2c3ccccc3N=C(N(C)CCCNC(=O)N(C)C)N2c2ccc(C3CCCCC3)cc2)cc1` (stereo not shown) [Compound I-3, 4-[N-(4-methoxybenzyl)acetamido)-3-(4-cyclohexylphenyl)-2-[N—(N′,N′-dimethylureidopropyl)-N-methyl]amino-3,4-dihydroquinazoline], for which, in the test with lung cancer cells (A549) [1] (10 μM, Table 6), the G0/G1 came out at 76.8, the G2/M stood at 12.1, the S is on record as 7.6 and the SubG1 worked out at 3.7.
Regarding `CN(C)C(=O)NCCCN(C)C1=Nc2ccccc2C(CC(=O)NCc2ccccc2)N1c1ccc(C2CCCCC2)cc1` (stereo not shown) [Compound I-1, 4-(N-benzylacetamido)-3-(4-cyclohexylphenyl)-2-[N—(N′,N′-dimethylureidopropyl)-N-methyl]amino-3,4-dihydroquinazoline], the IC50 turned out to be 12.2 µM in test [4] and 0.39 ± 0.11 µM in test [5].
Turning to `COCC(=O)O[C@]1(CCN(C)CCCc2nc3ccccc3[nH]2)CCc2cc(F)ccc2[C@@H]1C(C)C` [Mibefradil], in test [4], the IC50 was 24.9 µM.
